Experimental data from article PMC5330855 (Biochemistry, 2017).

Legend:
hhIYD [1] = biological target: T1, hhIYD (Haliscomenobacter hydrossis, UniProt F4KU78); format: biochemical
T1 sequence (F4KU78 1-222): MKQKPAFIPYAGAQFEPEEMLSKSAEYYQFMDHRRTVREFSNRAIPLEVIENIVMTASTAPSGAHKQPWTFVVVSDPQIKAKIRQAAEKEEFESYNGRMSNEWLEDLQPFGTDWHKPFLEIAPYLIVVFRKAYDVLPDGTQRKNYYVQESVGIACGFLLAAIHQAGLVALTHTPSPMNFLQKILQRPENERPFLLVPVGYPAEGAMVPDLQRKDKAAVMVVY

hhIYD [2] = biological target: T1, hhIYD; experiment: Quenching of FMNox fluorescence, ligand binding to hhIYD
human IYD = biological target: T2, human IYD (Homo sapiens, UniProt Q6PHW0); experiment: Catalytic deiodination by human IYD; format: biochemical
T2 sequence (Q6PHW0 with tags, fused parts or gaps): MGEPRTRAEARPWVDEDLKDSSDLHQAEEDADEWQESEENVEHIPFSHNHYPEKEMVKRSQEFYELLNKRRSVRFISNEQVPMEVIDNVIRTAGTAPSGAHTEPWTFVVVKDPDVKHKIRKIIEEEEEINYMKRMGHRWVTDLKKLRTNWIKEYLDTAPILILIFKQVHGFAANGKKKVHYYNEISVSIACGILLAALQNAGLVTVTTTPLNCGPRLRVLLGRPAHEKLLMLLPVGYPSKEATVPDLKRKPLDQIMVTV

hhIYD [3] = biological target: T1, hhIYD; experiment: Anaerobic reduction of hhIYD by xanthine and xanthine oxidase; format: biochemical; conditions: hhIYD 20 μM; F-Tyr 500 μM or 2IP 800 μM
[4] = Intrinsic reactivity of free cofactor FMNhq with 2IP; format: biochemical; conditions: FMN 2.5 μM, 2IP 5 mM, dithionite 0.5% w/v, 2 h incubation; threshold ~ 3 nmol
IYD = conditions: cited from earlier work

## O=C(O)c1ccc(O)c(I)c1 [2IPCOOH, 4-hydroxy-3-iodobenzoic acid]
hhIYD [1]; hhIYD
  Km larger than that for 2IP: 75%

## Nc1ccc(O)c(I)c1 [4A2IP, 4-amino-2-iodophenol]
hhIYD [2]; hhIYD
  Kd larger than that for 2IP: 40%
hhIYD [1]; hhIYD
  kcat/Km greater than the parent 2IP: ~6 fold

## N[C@@H](Cc1ccc(O)c(F)c1)C(=O)O [F-Tyr, 3-fluoro-L-tyrosine, reference compound]
hhIYD [2]
  Kd: 46 ± 2 µM

## N#Cc1ccc(O)c(I)c1 [2IPCN, 4-cyano-2-iodophenol]
hhIYD [2]; hhIYD
  Kd lower than that of 2IP: ~50 fold
hhIYD [1]; hhIYD
  deiodination by the bacterial deiodinase: not detectably deiodinated

## N[C@@H](Cc1ccc(O)c(I)c1)C(=O)O [I-Tyr, 3-iodo-L-tyrosine, reference compound]
hhIYD [2]; hhIYD relative to human IYD
  weaker affinity for hhIYD than human IYD: ~ 90 fold
Human IYD
  Km greater than Kd: > 80 fold
Human IYD; I2-Tyr by 125I-iodide release assay
  kcat/Km larger than that measured for I2-Tyr: 50%
hhIYD [1]; hhIYD versus human IYD
  increase in kcat/Km, hhIYD relative to human IYD: 16 fold

## Oc1ccccc1I [2IP, 2-iodophenol]
hhIYD [2]; hhIYD relative to human IYD
  increase in affinity for hhIYD relative to human IYD: ~ 20 fold
Human IYD
  Km greater than that for I-Tyr: 560 fold
  kcat less than that for I-Tyr: 26 fold
hhIYD [3]
  accumulation of the FMNsq intermediate during reduction: did not detectably promote an accumulation of the FMNsq intermediate
[4]
  phenol formed with free FMN: no phenol was detected

## O-(4-hydroxy-3,5-diiodophenoxy)-3,5-diiodo-L-tyrosine [Thyroxine]
IYD
  dehalogenation by IYD: not dehalogenated by IYD
